The results in this text go back to PMC8596838, “Xylose‐Configured Cyclophellitols as Selective Inhibitors for Glucocerebrosidase” (Chembiochem, 2021).

The target in this experiment is T1, GBA3 (Homo sapiens, UniProt Q9H227).
T1 construct: expressed in transfected cells; host or cells: HEK293T (GBA/GBA2 KO background for the fluorogenic assay; endogenous-GBA background with GBA2 and GBA3 overexpressed for ABPP and intact-cell assays)
T1 sequence (Q9H227 1-469): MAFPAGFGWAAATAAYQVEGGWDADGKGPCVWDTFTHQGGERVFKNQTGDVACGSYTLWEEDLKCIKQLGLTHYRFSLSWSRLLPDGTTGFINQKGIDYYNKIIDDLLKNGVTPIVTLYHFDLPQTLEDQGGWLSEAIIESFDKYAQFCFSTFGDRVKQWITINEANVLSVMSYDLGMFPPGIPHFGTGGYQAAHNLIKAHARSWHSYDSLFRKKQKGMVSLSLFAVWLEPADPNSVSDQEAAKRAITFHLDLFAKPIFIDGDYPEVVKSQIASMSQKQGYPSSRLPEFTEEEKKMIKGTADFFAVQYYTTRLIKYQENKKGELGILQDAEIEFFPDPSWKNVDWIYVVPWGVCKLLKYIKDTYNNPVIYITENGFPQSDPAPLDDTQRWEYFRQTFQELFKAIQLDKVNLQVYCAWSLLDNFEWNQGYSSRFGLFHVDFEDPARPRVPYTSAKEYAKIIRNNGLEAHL
The experiment in a line: ABP labeling of β-D-glucosidases in HEK293T cell lysate, GBA3. To be noted: 30 min, pH 6.0. It counts as biochemical. The protocol:
We next investigated, by ABPP, the GBA/GBA2/GBA3 activity and selectivity of β‐D‐xylo‐cyclophellitol aziridine ABPs 6 and 8 in comparison to those of GBA‐specific ABP 9 [31] or ABP 10.
Figure 4 (A) ABP labeling of β‐D‐glucosidases. A lysate of HEK293T cells expressing human GBA, GBA2 and GBA3 was incubated with indicated ABPs (6, 9 or 10) for 30 min at pH 6.0. Fluorescently labeled proteins were visualized after SDS‐PAGE. (B) Labeling with ABP 6 of wild type or mutant GBA2 (E527G nucleophile mutation and D667G acid/base mutation) expressed in HEK293T cells.
ABP labeling procedure: Glycosidases were labeled with excess fluorescent ABPs at optimum conditions. […] After ABP incubation, proteins were denatured by boiling the samples with 5× Laemmli buffer (50 % (v/v) 1 M Tris‐HCl, pH 6.8, 50 % (v/v) 100 % glycerol, 10 % (w/v) DTT, 10 % (w/v) SDS, 0.01 % (w/v) bromophenol blue) for 5 min at 98 °C, and separated by electrophoresis on 10 % (w/v) SDS‐PAGE gels running continuously at 90 V. Wet slab‐gels were scanned on fluorescence using the Typhoon FLA 9500 (GE Healthcare) at λEX 473 nm and λEM≥510 nm for green fluorescent ABP 8; and at λEX 635 nm and λEM≥665 nm for ABP 6, 9 and 10. ABP‐emitted fluorescence was quantified using ImageQuant software (GE Healthcare, Chicago, IL, USA) and curve‐fitted using Prism 8.0 (GraphPad Software). […]

On to `CN1/C(=C/C=C/C=C/C2=[N+](CCCCCC(=O)NCc3cn(CCCCCCCCN4[C@H]5[C@H](O)[C@@H](O)[C@H](O)C[C@H]54)nn3)c3ccccc3C2(C)C)C(C)(C)c2ccccc21` (stereo partly shown) [ABP 6], for which the “labeling of GBA3 compared with ABP 10” value is “tenfold less efficiently”.
